In patent publication US9394282B2, “Pyrazole carboxamides as Janus kinase inhibitors” (Merck Sharp & Dohme Corp., priority 2011, dated 2016):

molecular target: JAK1 (Homo sapiens (Human), UniProt P23458); experiment: Jak biochemical HTRF assay, JAK1; conditions: recombinant purified GST-tagged catalytic domain; HTRF format; [ATP] 31.8 μM
Description: Jak Biochemical HTRF Assay Protocol
Subsequent reagent additions employed an Agilent Bravo.

Sequence of JAK1 (P23458 875-1153): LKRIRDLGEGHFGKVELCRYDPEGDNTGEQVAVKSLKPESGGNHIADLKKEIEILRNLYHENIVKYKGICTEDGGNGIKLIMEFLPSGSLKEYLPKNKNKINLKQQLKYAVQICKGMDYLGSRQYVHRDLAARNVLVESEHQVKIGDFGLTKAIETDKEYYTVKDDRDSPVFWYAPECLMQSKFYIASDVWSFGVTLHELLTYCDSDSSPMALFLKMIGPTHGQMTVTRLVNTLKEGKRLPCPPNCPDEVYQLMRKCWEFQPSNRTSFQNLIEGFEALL

| IC50 [nM] | Compound |
| --- | --- |
| 23 | N#C[C@@H]1CN(CCC2CCOCC2)CC[C@H]1n1cc(C(N)=O)c(Nc2ccc(F)cc2)n1 (racemic) [Example 6-31, 1-{(3R,4R and 3S,4S)-3-cyano-1-[2-(tetrahydro-2H-pyran-4-yl)ethyl]piperidin-4-yl}-3-[(4-fluorophenyl)amino]-1H-pyrazole-4-carboxamide] |
| 0.7 | N#C[C@H]1CCOC[C@@H]1n1cc(C(N)=O)c(Nc2ccc(C(F)(F)F)nc2)n1 (single isomer, unassigned) [Example 9-14, 1-[(3R,4S or 3S,4R)-4-cyanotetrahydro-2H-pyran-3-yl]-3-{[6-(trifluoromethyl)pyridin-3-yl]amino}-1H-pyrazole-4-carboxamide] |
| 0.1 | COC(C)(C)c1ccc(Nc2nn([C@@H]3COCC[C@H]3C#N)cc2C(N)=O)cc1 (single isomer, unassigned) [Example 9-25, 1-[(3S,4R or 3R,4R)-4-cyanotetrahydro-2H-pyran-3-yl]-3-{[4-(1-methoxy-1-methylethyl)phenyl]amino}-1H-pyrazole-4-carboxamide] |
| 1 | N#C[C@@H]1CCN(Cc2cccnc2F)C[C@H]1n1cc(C(N)=O)c(Nc2ccc(F)cc2)n1 (racemic) [Example 6-17, 1-{(3S,4R and 3R,4S)-4-cyano-1-[(2-fluoropyridin-3-yl)methyl]piperidin-3-yl}-3-[(4-fluorophenyl)amino]-1H-pyrazole-4-carboxamide] |
| 16 | N#C[C@H]1CCOC[C@@H]1n1cc(C(N)=O)c(Nc2ccc(Cl)c(F)c2)n1 (single isomer, unassigned) [Example 9-12, 3-[(4-chloro-3-fluorophenyl)amino]-1-[(3R,4S or 3S,4R)-4-cyanotetrahydro-2H-pyran-3-yl]-1H-pyrazole-4-carboxamide] |
| 5 | N#C[C@H]1CS(=O)(=O)CC1n1cc(C(N)=O)c(Nc2ccnc(F)c2)n1 (mixture of isomers) [Example 8-8, 1-((3S,4S and 3R,4R)-4-cyano-1,1-dioxidotetrahydrothiophen-3-yl)-3-((2-fluoropyridin-4-yl)amino)-1H-pyrazole-4-carboxamide] |
| 4 | CC1=NOC(CN2CC[C@@H](n3cc(C(N)=O)c(Nc4ccc(F)cc4)n3)[C@H](C#N)C2)C1 (mixture of isomers) [Example 6-39, 1-{(3R,4R and 3S,4S)-3-cyano-1-[(3-methyl-4,5-dihydroisoxazol-5-yl)methyl]piperidin-4-yl}-3-[(4-fluorophenyl)amino]-1H-pyrazole-4-carboxamide] |
| 16 | COC1CC(CN2CC[C@@H](n3cc(C(N)=O)c(Nc4ccc(F)cc4)n3)[C@H](C#N)C2)C1 (mixture of isomers) [Example 6-30, 1-{(3R,4R and 3S,4S)-3-cyano-1-[(3-methoxycyclobutyl)methyl]piperidin-4-yl}-3-[(4-fluorophenyl)amino]-1H-pyrazole-4-carboxamide] |
| 0.4 | N#C[C@@H]1CCOC[C@H]1n1cc(C(N)=O)c(Nc2ccc(Cl)c(Cl)c2)n1 (single isomer, unassigned) [Example 9-11, 1-[(3S,4R or 3R,4S)-4-cyanotetrahydro-2H-pyran-3-yl]-3-[(3,4-dichlorophenyl)amino]-1H-pyrazole-4-carboxamide] |

The next lines start with the compound.

| Compound | IC50 [nM] |
| --- | --- |
| N#CCC1(COC(=O)N2CC[C@H](n3cc(C(N)=O)c(Nc4ccc(F)cc4)n3)[C@H](C#N)C2)CC1 (racemic) [Example 5-64, [1-(cyanomethyl)cyclopropyl]methyl (3R,4S and 3S,4R)-4-{4-carbamoyl-3-[(4-fluorophenyl)amino]-1H-pyrazol-1-yl}-3-cyanopiperidine-1-carboxylate] | 440 |
| CC(C)(C)COC(=O)N1CC[C@@H](n2cc(C(N)=O)c(Nc3ccc(F)cc3)n2)[C@H](C#N)C1 (racemic) [Example 5-18, 2,2-dimethylpropyl (3R,4R and 3S,4S)-4-{4-carbamoyl-3-[(4-fluorophenyl)amino]-1H-pyrazol-1-yl}-3-cyanopiperidine-1-carboxylatc] | 132 |
| N#C[C@@H]1CN(C(=O)OC2CCCC2)CC[C@H]1n1cc(C(N)=O)c(Nc2ccc(F)cc2)n1 (racemic) [Example 5-11, cyclopentyl (3R,4R and 3S,4S)-4-{4-carbamoyl-3-[(4-fluorophenyl)amino]-1H-pyrazol-1-yl}-3-cyanopiperidine-1-carboxylate] | 29 |
| N#C[C@@H]1CN(C(=O)OC2CCCC2)CC[C@@H]1n1cc(C(N)=O)c(Nc2ccc(F)cc2)n1 (racemic) [Example 5-49, cyclopentyl (3R,4S and 3S,4R)-4-{4-carbamoyl-3-[(4-fluorophenyl)amino]-1H-pyrazol-1-yl}-3-cyanopiperidine-1-carboxylate] | 257 |
| N#C[C@@H]1CN(C(=O)OCC(F)(F)F)CC[C@H]1n1cc(C(N)=O)c(Nc2ccc(F)cc2)n1 (racemic) [Example 5-28, 2,2,2-trifluoroethyl (3R,4R and 3S,4S)-4-{4-carbamoyl-3-[(4-fluorophenyl)amino]-1H-pyrazol-1-yl}-3-cyanopiperidine-1-carboxylate] | 10 |
| N#C[C@@H]1CN(C(=O)OC2CCOCC2)CC[C@H]1n1cc(C(N)=O)c(Nc2ccc(F)cc2)n1 (racemic) [Example 5-13, tetrahydro-2H-pyran-4-yl (3R,4R and 3S,4S)-4-{4-carbamoyl-3-[(4-fluorophenyl)amino]-1H-pyrazol-1-yl}-3-cyanopiperidine-1-carboxylate] | 20 |
| CC(C)(C)CCOC(=O)N1CC[C@@H](C#N)C(n2cc(C(N)=O)c(Nc3ccc(F)cc3)n2)C1 (mixture of isomers) [Example 4, 3,3-Dimethylbutyl(3S,4R and 3R,4S)-3-{4-carbamoyl-3-[(4-fluorophenyl)amino]-1H-pyrazol-1-yl}-4-cyanopiperidine-1-carboxylate] | 8 |
| N#C[C@@H]1CN(C(=O)OCC(F)(F)F)CC[C@@H]1n1cc(C(N)=O)c(Nc2ccc(F)cc2)n1 (racemic) [Example 5-66, 2,2,2-trifluoroethyl (3R,4S and 3S,4R)-4-{4-carbamoyl-3-[(4-fluorophenyl)amino]-1H-pyrazol-1-yl}-3-cyanopiperidine-1-carboxylate] | 84 |
| CC(C)(COC(=O)N1CC[C@@H](n2cc(C(N)=O)c(Nc3ccc(F)cc3)n2)[C@H](C#N)C1)n1cccn1 (racemic) [Example 5-27, 2-methyl-2-(1H-pyrazol-1-yl)propyl (3R,4R and 3S,4S)-4-{4-carbamoyl-3-[(4-fluorophenyl)amino]-1H-pyrazol-1-yl}-3-cyanopiperidine-1-carboxylate] | 92 |
| CCOC(=O)COC(=O)N1CC[C@H](n2cc(C(N)=O)c(Nc3ccc(F)cc3)n2)[C@H](C#N)C1 (racemic) [Example 5-59, 2-ethoxy-2-oxoethyl (3R,4S and 3S,4R)-4-{4-carbamoyl-3-[(4-fluorophenyl)amino]-1H-pyrazol-1-yl}-3-cyanopiperidine-1-carboxylate] | 323 |
| N#CCC1(COC(=O)N2CC[C@@H](n3cc(C(N)=O)c(Nc4ccc(F)cc4)n3)[C@H](C#N)C2)CC1 (racemic) [Example 5-39, [1-(cyanomethyl)cyclopropyl]methyl (3R,4R and 3S,4S)-4-{4-carbamoyl-3-[(4-fluorophenyl)amino]-1H-pyrazol-1-yl}-3-cyanopiperidine-1-carboxylate] | 25 |
